How the values were obtained:
[1] = Plasma stability in monkey plasma; type: in vitro ADME
Description: The final concentration of organic solvents was 0.5%. The test was conducted in duplicate. • C.
Samples were analyzed with LC-MS/MS. All calculations were conducted using Microsoft Excel.

[2] = system: HuPrime pancreatic cancer xenograft model PA1222; test: In vivo pharmacodynamic experiment in HuPrime pancreatic cancer PA1222 PDX model; conditions: for Tumor volume (x ± S): mean ± standard error
[3] = Group 3, 240 mg/kg p.o. QD×21, Day 32
[4] = Group 4, 160 mg/kg i.p. QD×5, 2 days off, 2 weeks off, QD×5, Day 32

Question: For CC(C)NP(=O)(OCc1ccc([N+](=O)[O-])c(Oc2ccc(-c3ccc(F)cc3)c(F)c2)c1)OCC1OC(C2N=CC(N)=NC2=O)C(F)(F)C1O (centres unmarked) [Compound H11], which “t1/2 (min)” value [1] is on record?
Answer: ∞

Question: And the “Remaining percentage (%)” value ([1]; 0 min, 5 μM, 37° C.)?
Answer: 100.00%

Question: And the “plasma stability (in words)” value ([1]; 37° C., at least 2 hours)?
Answer: stable and has no significant metabolism

Question: And the “Remaining percentage (%)” value ([1]; 15 min)?
Answer: 100.61%

Question: What about the “Remaining percentage (%)” value ([1]; 30 min) of the same molecule?
Answer: 92.99%

Question: And the “Remaining percentage (%)” value ([1]; 60 min)?
Answer: 103.66%

Question: What about the “Remaining percentage (%)” value ([1]; 120 min) of the same molecule?
Answer: 98.48%

Question: What about the “weight loss and tolerability during treatment” value ([2]; Group 3, 240 mg/kg p.o. QD×21) of the same molecule?
Answer: did not show any significant weight loss, and tolerated well

Question: And the “Relative tumor volume (x ± S)” value [2, 3]?
Answer: 0.47 ± 0.27

Question: And the “T/C (%)” value [2, 3]?
Answer: 7.65%

Question: What about the “TGI (%)” value [2, 3] of the same molecule?
Answer: 92.35%

Question: What about the “complete tumor inhibition rate” value [2, 3] of the same molecule?
Answer: 20%

Question: And the “Tumor volume (x ± S)” value [2, 3]?
Answer: 44.61 ± 22.14

Question: And the “Average weight (g) of mice” value ([2]; Group 3, 240 mg/kg p.o., Day 0)?
Answer: 21.8 g

Question: What about the “Average weight (g) of mice” value ([2]; Group 3, 240 mg/kg p.o., Day 1) of the same molecule?
Answer: 21.5 g

Question: And the “Average weight (g) of mice” value ([2]; Group 3, 240 mg/kg p.o., Day 2)?
Answer: 21.5 g

Question: And the “Average weight (g) of mice” value ([2]; Group 3, 240 mg/kg p.o., Day 3)?
Answer: 21.6 g

Question: What about the “Average weight (g) of mice” value ([2]; Group 3, 240 mg/kg p.o., Day 4) of the same molecule?
Answer: 21.9 g

Question: And the “Average weight (g) of mice” value ([2]; Group 3, 240 mg/kg p.o., Day 5)?
Answer: 22.3 g

Question: What about the “Average weight (g) of mice” value ([2]; Group 3, 240 mg/kg p.o., Day 6) of the same molecule?
Answer: 21.7 g

Question: What about the “Average weight (g) of mice” value ([2]; Group 3, 240 mg/kg p.o., Day 7) of the same molecule?
Answer: 21.6 g

Question: And the “Average weight (g) of mice” value ([2]; Group 3, 240 mg/kg p.o., Day 8)?
Answer: 21.7 g

Question: What about the “Average weight (g) of mice” value ([2]; Group 3, 240 mg/kg p.o., Day 9) of the same molecule?
Answer: 22.5 g

Question: What about the “Average weight (g) of mice” value ([2]; Group 3, 240 mg/kg p.o., Day 10) of the same molecule?
Answer: 21.6 g

Question: What about the “Average weight (g) of mice” value ([2]; Group 3, 240 mg/kg p.o., Day 11) of the same molecule?
Answer: 21.9 g

Question: And the “Average weight (g) of mice” value ([2]; Group 3, 240 mg/kg p.o., Day 12)?
Answer: 22.0 g

Question: What about the “Average weight (g) of mice” value ([2]; Group 3, 240 mg/kg p.o., Day 13) of the same molecule?
Answer: 21.9 g

Question: And the “Average weight (g) of mice” value ([2]; Group 3, 240 mg/kg p.o., Day 14)?
Answer: 21.6 g

Question: What about the “Average weight (g) of mice” value ([2]; Group 3, 240 mg/kg p.o., Day 15) of the same molecule?
Answer: 21.6 g

Question: What about the “Average weight (g) of mice” value ([2]; Group 3, 240 mg/kg p.o., Day 16) of the same molecule?
Answer: 22.1 g

Question: And the “Average weight (g) of mice” value ([2]; Group 3, 240 mg/kg p.o., Day 17)?
Answer: 21.8 g

Question: What about the “Average weight (g) of mice” value ([2]; Group 3, 240 mg/kg p.o., Day 18) of the same molecule?
Answer: 21.9 g

Question: What about the “Average weight (g) of mice” value ([2]; Group 3, 240 mg/kg p.o., Day 19) of the same molecule?
Answer: 21.8 g

Question: And the “Average weight (g) of mice” value ([2]; Group 3, 240 mg/kg p.o., Day 20)?
Answer: 21.9 g

Question: And the “Average weight (g) of mice” value ([2]; Group 3, 240 mg/kg p.o., Day 21)?
Answer: 21.8 g

Question: And the “Average weight (g) of mice” value ([2]; Group 3, 240 mg/kg p.o., Day 25)?
Answer: 22.6 g

Question: What about the “Average weight (g) of mice” value ([2]; Group 3, 240 mg/kg p.o., Day 28) of the same molecule?
Answer: 22.4 g

Question: And the “Average weight (g) of mice” value ([2]; Group 3, 240 mg/kg p.o., Day 32)?
Answer: 22.9 g

Question: What about the “Tumor volume (mm^3) (x ± S)” value ([2]; Group 3, 240 mg/kg p.o., day 0) of the same molecule?
Answer: 102.83 mm^3

Question: What about the “Tumor volume (mm^3) (x ± S)” value ([2]; Group 3, 240 mg/kg p.o., day 4) of the same molecule?
Answer: 123.16 mm^3

Question: What about the “Tumor volume (mm^3) (x ± S)” value ([2]; Group 3, 240 mg/kg p.o., day 7) of the same molecule?
Answer: 90.07 mm^3

Question: And the “Tumor volume (mm^3) (x ± S)” value ([2]; Group 3, 240 mg/kg p.o., day 11)?
Answer: 54.28 mm^3

Question: And the “Tumor volume (mm^3) (x ± S)” value ([2]; Group 3, 240 mg/kg p.o., day 14)?
Answer: 41.73 mm^3

Question: And the “Tumor volume (mm^3) (x ± S)” value ([2]; Group 3, 240 mg/kg p.o., day 18)?
Answer: 34.60 mm^3

Question: What about the “Tumor volume (mm^3) (x ± S)” value ([2]; Group 3, 240 mg/kg p.o., day 21) of the same molecule?
Answer: 29.52 mm^3

Question: What about the “Tumor volume (mm^3) (x ± S)” value ([2]; Group 3, 240 mg/kg p.o., day 25) of the same molecule?
Answer: 30.71 mm^3

Question: And the “Tumor volume (mm^3) (x ± S)” value ([2]; Group 3, 240 mg/kg p.o., day 28)?
Answer: 30.59 mm^3

Question: And the “Tumor volume (mm^3) (x ± S)” value ([2]; Group 3, 240 mg/kg p.o., day 32)?
Answer: 44.61 mm^3

Question: What about the “weight loss and tolerability during treatment” value ([2]; Group 4, 160 mg/kg i.p. QD×5, 2 days off, 2 weeks off, QD×5) of the same molecule?
Answer: did not show any significant weight loss, and tolerated well

Question: What about the “Relative tumor volume (x ± S)” value [2, 4] of the same molecule?
Answer: 2.01 ± 0.41

Question: What about the “T/C (%)” value [2, 4] of the same molecule?
Answer: 32.38%

Question: What about the “TGI (%)” value [2, 4] of the same molecule?
Answer: 67.62%

Question: And the “Tumor volume (x ± S)” value [2, 4]?
Answer: 202.58 ± 45.40

Question: What about the “Average weight (g) of mice” value ([2]; Group 4, 160 mg/kg i.p., Day 0) of the same molecule?
Answer: 21.4 g

Question: And the “Average weight (g) of mice” value ([2]; Group 4, 160 mg/kg i.p., Day 1)?
Answer: 22.0 g

Question: What about the “Average weight (g) of mice” value ([2]; Group 4, 160 mg/kg i.p., Day 2) of the same molecule?
Answer: 21.5 g

Question: What about the “Average weight (g) of mice” value ([2]; Group 4, 160 mg/kg i.p., Day 3) of the same molecule?
Answer: 22.0 g

Question: And the “Average weight (g) of mice” value ([2]; Group 4, 160 mg/kg i.p., Day 4)?
Answer: 21.7 g

Question: What about the “Average weight (g) of mice” value ([2]; Group 4, 160 mg/kg i.p., Day 7) of the same molecule?
Answer: 22.3 g

Question: What about the “Average weight (g) of mice” value ([2]; Group 4, 160 mg/kg i.p., Day 11) of the same molecule?
Answer: 22.5 g

Question: And the “Average weight (g) of mice” value ([2]; Group 4, 160 mg/kg i.p., Day 14)?
Answer: 22.9 g

Question: What about the “Average weight (g) of mice” value ([2]; Group 4, 160 mg/kg i.p., Day 18) of the same molecule?
Answer: 22.7 g
